Assay results taken from ChEMBL document CHEMBL3813683, “Design, synthesis and anti-cancer activity evaluation of podophyllotoxin-norcantharidin hybrid drugs” (Bioorg Med Chem Lett, 2016).
Active and inactive are the calls of the source. The rule behind the calls is not given here.

Key:
Tubulin (Homo sapiens) [1] = biological target: T1, Tubulin (Homo sapiens) (UniProt P68371+Q9H4B7+P0DPH7+P68366+Q13509+Q71U36+P04350+Q3ZCM7+P07437+P68363+Q9BQE3+Q6PEY2+Q13885+Q9BVA1+Q9BUF5); assay: Inhibition of tubulin polymerization in human MCF7 cells assessed as alteration of interphase microtubule network at 2 uM after 24 hrs by DAPI staining-based confocal microscopic analysis; assay type: cell-based
MCF7 [2] = assay: Induction of apoptosis in human MCF7 cells assessed as late apoptotic cells at 4 uM after 24 hrs by Annexin V-FITC/propidium iodide staining-based flow cytometry (reference value: 5.92 to 9.33%); assay type: functional
MCF7 [3] = assay: Induction of apoptosis in human MCF7 cells assessed as increase in PARP cleavage at 8 uM after 24 hrs by Western blot analysis; assay type: functional, cell-based
MCF7 [4] = assay: Induction of apoptosis in human MCF7 cells assessed as necrotic cells at 4 uM after 24 hrs by Annexin V-FITC/propidium iodide staining-based flow cytometry (reference value: 0.021 to 3.8%); assay type: functional
MCF7 [5] = assay: Induction of apoptosis in human MCF7 cells assessed as late apoptotic cells at 8 uM after 24 hrs by Annexin V-FITC/propidium iodide staining-based flow cytometry (reference value: 5.92 to 9.33%); assay type: functional
A549 = assay: Cytotoxicity against human A549 cells after 36 hrs by MTT assay; assay type: functional, cell-based; conditions: A549, 36 h
MCF7 [6] = assay: Cell cycle arrest in human MCF7 cells assessed as accumulation at G2/M phase at 8 uM after 24 hrs by propidium iodide staining-based flow cytometry (reference value: 3.73 to 10.75%); assay type: functional
MCF7 [7] = assay: Cell cycle arrest in human MCF7 cells assessed as accumulation at G2/M phase at 4 uM after 24 hrs by propidium iodide staining-based flow cytometry (reference value: 3.73 to 10.75%); assay type: functional
MCF7 [8] = assay: Cell cycle arrest in human MCF7 cells assessed as accumulation at S phase at 2 uM after 24 hrs by propidium iodide staining-based flow cytometry (reference value: 15.95 to 25.74%); assay type: functional
MCF7 [9] = assay: Cytotoxicity against human MCF7 cells after 36 hrs by MTT assay; assay type: functional, cell-based; conditions: MCF7, 36 h
HeLa = assay: Cytotoxicity against human HeLa cells after 36 hrs by MTT assay; assay type: functional, cell-based
MCF7 [10] = assay: Cell cycle arrest in human MCF7 cells assessed as accumulation at G2/M phase at 2 uM after 24 hrs by propidium iodide staining-based flow cytometry (reference value: 3.73 to 10.75%); assay type: functional
MCF7 [11] = assay: Induction of apoptosis in human MCF7 cells assessed as early apoptotic cells at 2 uM after 24 hrs by Annexin V-FITC/propidium iodide staining-based flow cytometry (reference value: 2.45 to 6.92%); assay type: functional
MCF7 [12] = assay: Induction of apoptosis in human MCF7 cells assessed as late apoptotic cells at 1 uM after 24 hrs by Annexin V-FITC/propidium iodide staining-based flow cytometry (reference value: 5.92 to 9.33%); assay type: functional
MCF7 [13] = assay: Induction of apoptosis in human MCF7 cells assessed as viable cells at 8 uM after 24 hrs by Annexin V-FITC/propidium iodide staining-based flow cytometry (reference value: 80 to 91.6%); assay type: functional; conditions: MCF7, 24 h, read-out: Activity
MCF7 [14] = assay: Induction of apoptosis in human MCF7 cells assessed as late apoptotic cells at 2 uM after 24 hrs by Annexin V-FITC/propidium iodide staining-based flow cytometry (reference value: 5.92 to 9.33%); assay type: functional
MCF7 [15] = assay: Induction of apoptosis in human MCF7 cells assessed as early apoptotic cells at 4 uM after 24 hrs by Annexin V-FITC/propidium iodide staining-based flow cytometry (reference value: 2.45 to 6.92%); assay type: functional
MCF7 [16] = assay: Induction of apoptosis in human MCF7 cells assessed as early apoptotic cells at 8 uM after 24 hrs by Annexin V-FITC/propidium iodide staining-based flow cytometry (reference value: 2.45 to 6.92%); assay type: functional
MCF7 [17] = assay: Induction of apoptosis in human MCF7 cells assessed as viable cells at 2 uM after 24 hrs by Annexin V-FITC/propidium iodide staining-based flow cytometry (reference value: 80 to 91.6%); assay type: functional; conditions: MCF7, 24 h, read-out: Activity
MCF7 [18] = assay: Cell cycle arrest in human MCF7 cells assessed as accumulation at S phase at 4 uM after 24 hrs by propidium iodide staining-based flow cytometry (reference value: 15.95 to 25.74%); assay type: functional
MCF7 [19] = assay: Induction of apoptosis in human MCF7 cells assessed as necrotic cells at 2 uM after 24 hrs by Annexin V-FITC/propidium iodide staining-based flow cytometry (reference value: 0.021 to 3.8%); assay type: functional
MCF7 [20] = assay: Induction of apoptosis in human MCF7 cells after 24 hrs by Annexin V-FITC/propidium iodide staining-based flow cytometry; assay type: functional, cell-based
MCF7 [21] = assay: Induction of apoptosis in human MCF7 cells assessed as necrotic cells at 8 uM after 24 hrs by Annexin V-FITC/propidium iodide staining-based flow cytometry (reference value: 0.021 to 3.8%); assay type: functional
MCF7 [22] = assay: Cell cycle arrest in human MCF7 cells assessed as accumulation at G0/G1 phase at 2 uM after 24 hrs by propidium iodide staining-based flow cytometry (reference value: 64.68 to 80.32%); assay type: functional
MCF7 [23] = assay: Induction of apoptosis in human MCF7 cells assessed as early apoptotic cells at 1 uM after 24 hrs by Annexin V-FITC/propidium iodide staining-based flow cytometry (reference value: 2.45 to 6.92%); assay type: functional
MCF7 [24] = assay: Cell cycle arrest in human MCF7 cells assessed as accumulation at G0/G1 phase at 8 uM after 24 hrs by propidium iodide staining-based flow cytometry (reference value: 64.68 to 80.32%); assay type: functional
MCF7 [25] = assay: Cell cycle arrest in human MCF7 cells assessed as accumulation at S phase at 8 uM after 24 hrs by propidium iodide staining-based flow cytometry (reference value: 15.95 to 25.74%); assay type: functional
MCF7 [26] = assay: Induction of apoptosis in human MCF7 cells assessed as viable cells at 1 uM after 24 hrs by Annexin V-FITC/propidium iodide staining-based flow cytometry (reference value: 80 to 91.6%); assay type: functional; conditions: MCF7, 24 h, read-out: Activity
MCF7 [27] = assay: Upregulation of CDK1 in human MCF7 cells at 2 to 8 uM after 24 hrs by Western blot analysis; assay type: functional, cell-based
MCF7 [28] = assay: Induction of apoptosis in human MCF7 cells assessed as viable cells at 4 uM after 24 hrs by Annexin V-FITC/propidium iodide staining-based flow cytometry (reference value: 80 to 91.6%); assay type: functional; conditions: MCF7, 24 h, read-out: Activity
[29] = Cytotoxicity against HEK293T cells after 36 hrs by MTT assay; assay type: cell-based; conditions: Homo sapiens, HEK-293T
Tubulin (Homo sapiens) [30] = biological target: T1, Tubulin (Homo sapiens); assay: Inhibition of tubulin polymerization in human MCF7 cells assessed as alteration of interphase microtubule network at 4 uM after 24 hrs by DAPI staining-based confocal microscopic analysis; assay type: cell-based
MCF7 [31] = assay: Induction of apoptosis in human MCF7 cells assessed as necrotic cells at 1 uM after 24 hrs by Annexin V-FITC/propidium iodide staining-based flow cytometry (reference value: 0.021 to 3.8%); assay type: functional
MCF7 [32] = assay: Downregulation of cyclin B1 in human MCF7 cells at 2 to 8 uM after 24 hrs by Western blot analysis; assay type: functional, cell-based
MCF7 [33] = assay: Cell cycle arrest in human MCF7 cells assessed as accumulation at G0/G1 phase at 4 uM after 24 hrs by propidium iodide staining-based flow cytometry (reference value: 64.68 to 80.32%); assay type: functional

SMILES | Activity (MCF7 [2]) | Activity (MCF7 [4]) | Activity (MCF7 [5]) | IC50 (A549) | Activity (MCF7 [6]) | Activity (MCF7 [7]) | Activity (MCF7 [8]) | IC50 (MCF7 [9]) | IC50 (HeLa) | Activity (MCF7 [10]) | Activity (MCF7 [11]) | Activity (MCF7 [12]) | viability at 8 µM (MCF7 [13]) | Activity (MCF7 [14]) | Activity (MCF7 [15]) | Activity (MCF7 [16]) | viability at 2 µM (MCF7 [17]) | Activity (MCF7 [18]) | Activity (MCF7 [19]) | Activity (MCF7 [21]) | further results
CC(=O)O[C@H]1C(=O)[C@@]2(C)[C@H]([C@H](OC(=O)c3ccccc3)[C@]3(O)C[C@H](OC(=O)[C@H](O)[C@@H](NC(=O)c4ccccc4)c4ccccc4)C(C)=C1C3(C)C)[C@]1(OC(C)=O)CO[C@@H]1C[C@@H]2O | – | – | – | – | – | – | – | – | – | – | – | – | – | – | – | – | – | – | – | – | inhibition (Tubulin (Homo sapiens) [1]): inactive
COc1cc(C2c3cc4c(cc3[C@H](OC(=O)C(Cc3ccccc3)N3C(=O)C5C6CCC(O6)C5C3=O)[C@H]3COC(=O)[C@H]23)OCO4)cc(OC)c1OC (stereo partly drawn) | 6.15% | 0.03% | 6.97% | 7.82 µM | 59.61% | 38.94% | 45.05% | 0.88 µM | 3.21 µM | 32.33% | 80.1% | 14.2% | 31.1% | 4.51% | 73.1% | 61.9% | 15.4% | 43.82% | 0% | 0.022% | Activity (MCF7 [3]): Active; Activity (MCF7 [20]): Dose-dependent effect; Activity (MCF7 [22]): 22.62%; Activity (MCF7 [23]): 50.3%; Activity (MCF7 [24]): 8.17%; Activity (MCF7 [25]): 32.22%; viability at 1 µM (MCF7 [26]): 35.4%; Activity (MCF7 [27]): inactive; viability at 4 µM (MCF7 [28]): 20.7%; IC50 [29]: 54.4 µM; inhibition (Tubulin (Homo sapiens) [30]): Active; Activity (MCF7 [31]): 0.021%; Activity (MCF7 [32]): Active; Activity (MCF7 [33]): 17.24%
COc1cc([C@@H]2c3cc4c(cc3[C@H](O)[C@H]3COC(=O)[C@H]23)OCO4)cc(OC)c1OC [PODOFILOX] | 3.57% | 0.032% | 4.97% | 1.36 µM | 15.2% | 12.77% | 53.55% | 1.11 µM | 1.45 µM | 11.97% | 2.95% | 4.34% | 91.8% | 6.26% | 3.35% | 3.24% | 90.8% | 19.36% | 0.021% | 0.042% | Activity (MCF7 [22]): 34.48%; Activity (MCF7 [23]): 2.33%; Activity (MCF7 [24]): 27.1%; Activity (MCF7 [25]): 57.7%; viability at 1 µM (MCF7 [26]): 93.3%; viability at 4 µM (MCF7 [28]): 93.1%; IC50 [29]: 1.54 µM; Activity (MCF7 [31]): 0.037%; Activity (MCF7 [33]): 67.87%
O=C1OC(=O)C2C3CCC(O3)C12 (stereo not drawn) | 22% | 11.6% | 41.3% | 15.7 µM | 22.55% | 16.7% | 42.95% | 12.1 µM | 9.03 µM | 15.64% | 6.04% | 14.5% | 33.5% | 20.8% | 8.3% | 11% | 69% | 47.21% | 4.21% | 14.2% | Activity (MCF7 [22]): 41.61%; Activity (MCF7 [23]): 5.68%; Activity (MCF7 [24]): 31.77%; Activity (MCF7 [25]): 45.68%; viability at 1 µM (MCF7 [26]): 74%; viability at 4 µM (MCF7 [28]): 58.1%; IC50 [29]: 9.81 µM; Activity (MCF7 [31]): 5.89%; Activity (MCF7 [33]): 36.09%
